Assay [1] is described as follows: Antiproliferative activity against human RPMI8226 cells after 72 hrs by WST8 assay. Conditions: RPMI-8226, 72 h. The class given is functional, cell-based. Background: Tetrazolium assays rely on reduction of a dye to a coloured formazan, in cell work by metabolically active cells.
The target of assay [2] is Histone deacetylase 3 (Homo sapiens, UniProt O15379). As to the kind of experiment: Inhibition of human recombinant full length HDAC3 using (Ac)-Lys-Tyr-Lys(-acetyl)-AMC substrate after 30 mins.
Histone deacetylase 3, sequence (O15379 whole entry): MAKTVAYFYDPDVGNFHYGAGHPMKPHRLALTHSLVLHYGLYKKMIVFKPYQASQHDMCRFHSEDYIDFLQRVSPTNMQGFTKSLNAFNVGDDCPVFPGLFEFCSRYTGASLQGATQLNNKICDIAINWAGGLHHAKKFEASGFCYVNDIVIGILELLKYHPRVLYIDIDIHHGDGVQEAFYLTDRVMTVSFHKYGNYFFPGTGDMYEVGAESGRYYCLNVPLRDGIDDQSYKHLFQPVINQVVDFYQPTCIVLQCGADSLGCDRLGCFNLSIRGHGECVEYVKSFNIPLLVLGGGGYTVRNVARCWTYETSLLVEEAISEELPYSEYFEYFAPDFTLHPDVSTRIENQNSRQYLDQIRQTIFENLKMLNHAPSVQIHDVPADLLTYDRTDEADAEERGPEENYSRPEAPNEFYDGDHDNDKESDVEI
For assay [3], the target named is Histone deacetylase 1 (Homo sapiens, UniProt Q13547). As to the kind of experiment: Inhibition of human recombinant full length HDAC1 using (Ac)-Lys-Tyr-Lys(-acetyl)-AMC substrate after 30 mins.
Histone deacetylase 1, sequence (Q13547 whole entry): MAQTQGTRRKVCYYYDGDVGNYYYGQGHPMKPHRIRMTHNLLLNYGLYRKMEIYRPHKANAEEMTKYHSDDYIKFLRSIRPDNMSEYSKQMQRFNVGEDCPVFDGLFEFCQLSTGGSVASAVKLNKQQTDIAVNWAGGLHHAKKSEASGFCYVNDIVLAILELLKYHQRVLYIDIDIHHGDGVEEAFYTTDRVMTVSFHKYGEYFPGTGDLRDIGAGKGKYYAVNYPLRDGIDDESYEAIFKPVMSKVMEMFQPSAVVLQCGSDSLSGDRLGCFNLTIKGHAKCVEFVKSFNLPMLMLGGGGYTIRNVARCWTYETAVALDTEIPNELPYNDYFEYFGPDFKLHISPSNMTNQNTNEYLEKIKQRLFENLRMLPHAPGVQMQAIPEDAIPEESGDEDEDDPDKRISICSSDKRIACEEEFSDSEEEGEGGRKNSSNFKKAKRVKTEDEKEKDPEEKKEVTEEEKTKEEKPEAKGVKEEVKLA
The target of assay [4] is T1, Histone deacetylase (Homo sapiens) (UniProt Q13547+O15379+Q9UBN7+Q92769+Q9UQL6+Q8WUI4+Q9BY41+Q96DB2+P56524+Q9UKV0+Q969S8). As to the kind of experiment: Inhibition of HDAC in human RPMI8226 cells assessed as increase in histone H3 acetylation after 24 hrs by Western blot analysis. Format: cell-based. To be noted: RPMI-8226. On the technique in general: A western blot detects proteins with antibodies after separation by electrophoresis.

Assay [5] can be described thus: Antiproliferative activity against human HCT116 cells after 72 hrs by WST8 assay. The class given is functional, cell-based. To be noted: HCT-116, 72 h.
Assay [6] concerns the target T2, Protein deacetylase HDAC6 (Homo sapiens, UniProt Q9UBN7).
T2 sequence (Q9UBN7 whole entry): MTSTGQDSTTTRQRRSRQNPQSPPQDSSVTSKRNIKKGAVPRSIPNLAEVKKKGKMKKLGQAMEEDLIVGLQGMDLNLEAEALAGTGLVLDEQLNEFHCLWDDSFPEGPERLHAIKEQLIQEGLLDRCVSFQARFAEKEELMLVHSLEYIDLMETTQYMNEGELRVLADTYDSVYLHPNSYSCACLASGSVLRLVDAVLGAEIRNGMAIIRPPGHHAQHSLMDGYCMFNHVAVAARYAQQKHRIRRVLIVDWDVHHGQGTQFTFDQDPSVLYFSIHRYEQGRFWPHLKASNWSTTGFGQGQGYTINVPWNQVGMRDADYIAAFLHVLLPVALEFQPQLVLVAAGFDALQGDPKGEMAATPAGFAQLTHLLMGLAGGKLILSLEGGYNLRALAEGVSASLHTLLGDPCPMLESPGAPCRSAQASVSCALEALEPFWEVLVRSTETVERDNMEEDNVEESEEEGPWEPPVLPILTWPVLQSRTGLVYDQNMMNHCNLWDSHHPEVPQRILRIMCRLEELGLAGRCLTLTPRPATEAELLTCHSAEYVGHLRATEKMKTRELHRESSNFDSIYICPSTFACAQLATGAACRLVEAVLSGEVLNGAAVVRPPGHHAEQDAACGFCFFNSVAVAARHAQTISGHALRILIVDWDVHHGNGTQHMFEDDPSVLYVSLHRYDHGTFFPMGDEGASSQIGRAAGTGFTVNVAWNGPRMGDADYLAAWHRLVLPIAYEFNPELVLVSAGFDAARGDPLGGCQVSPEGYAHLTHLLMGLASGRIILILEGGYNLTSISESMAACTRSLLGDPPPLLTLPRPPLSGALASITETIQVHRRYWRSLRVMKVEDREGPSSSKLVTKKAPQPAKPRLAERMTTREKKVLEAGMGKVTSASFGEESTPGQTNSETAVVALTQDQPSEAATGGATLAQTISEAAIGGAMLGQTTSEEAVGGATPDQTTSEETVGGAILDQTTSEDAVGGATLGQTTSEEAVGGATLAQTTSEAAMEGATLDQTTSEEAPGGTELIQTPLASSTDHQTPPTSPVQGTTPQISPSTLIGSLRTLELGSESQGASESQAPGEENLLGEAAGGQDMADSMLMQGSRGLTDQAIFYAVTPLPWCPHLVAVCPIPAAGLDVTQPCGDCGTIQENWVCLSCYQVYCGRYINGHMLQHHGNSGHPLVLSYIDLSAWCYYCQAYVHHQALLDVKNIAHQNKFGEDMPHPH
As to the kind of experiment: Inhibition of human recombinant full length HDAC6 using (Boc-Lys (-acetyl)-AMC substrate after 30 mins.

The target of assay [7] is T1, Histone deacetylase (Homo sapiens). As to the kind of experiment: Inhibition of HDAC in human RPMI8226 cells assessed as increase in alpha-tubulin acetylation after 24 hrs by Western blot analysis. To be noted: RPMI-8226. The class given is cell-based.

In the case of `O=C(CCCCCCC(=O)Nc1cc2c(Cl)ncnc2s1)NO`, the IC50 (as a rule, the point on the concentration scale where inhibition reaches its midpoint) in assay [1] was determined as 2180 nM; in assay [2], 26.5 nM; in assay [3], 25.5 nM; in assay [5] it was 2920 nM; in assay [6], 15.1 nM. In addition, the inhibition result in assay [4] and in assay [7] was “Dose-dependent effect” in each case.
For `O=C(CCCCCCC(=O)Nc1cc2c(Nc3ccc(N4CCCCC4)c(F)c3)ncnc2s1)NO`, the IC50 in assay [1] was 3280 nM; in assay [2] it was 8.19 nM; in assay [3] it was 5.39 nM; in assay [5], 1440 nM; in assay [6] it was 3.42 nM.
With `Cc1ccc(Nc2ncnc3sc(NC(=O)CCCCCC(=O)NO)cc23)cc1C`, the IC50 in assay [2] was 14.7 nM; in assay [3] it was 29.8 nM; in assay [6] it was 16.9 nM.
For `O=C(CCCCCCC(=O)Nc1cc2c(Nc3ccc(Cl)cc3F)ncnc2s1)NO`, the IC50 in assay [1] turned out to be 3500 nM; in assay [2] it was 14.5 nM; in assay [3] it was 12.5 nM; in assay [5], 1700 nM; in assay [6], 5.58 nM.
Consider `Cc1ccc(Nc2ncnc3sc(NC(=O)CCCCCCC(=O)NO)cc23)cc1`, for which the IC50 in assay [1] was determined as 3840 nM; in assay [2], 2.92 nM; in assay [3], 2.01 nM; in assay [5], 2340 nM; in assay [6], 5.37 nM. The inhibition entry in assay [4] and in assay [7] was “Dose-dependent effect” throughout.
With `CCN(CC)c1ccc(Nc2ncnc3sc(NC(=O)CCCCCCC(=O)NO)cc23)cc1F`, the IC50 in assay [1] amounted to 1410 nM; in assay [2], 3.52 nM; in assay [3], 4.57 nM; in assay [5], 2550 nM; in assay [6] it was 3.44 nM. The inhibition entry in assay [4] and in assay [7] was “Dose-dependent effect” in each case.
On to `O=C(CCCCCC(=O)Nc1cc2c(Nc3ccccc3)ncnc2s1)NO`, for which the IC50 in assay [2] is 20.8 nM; in assay [3], 11.8 nM; in assay [6], 27 nM.
With `CN(C)c1ccc(Nc2ncnc3sc(NC(=O)CCCCCCC(=O)NO)cc23)cc1F`, the IC50 was determined as 3490 nM in assay [1]; 3.22 nM in assay [2]; 4.51 nM in assay [3]; 4030 nM in assay [5]; 2.69 nM in assay [6]. Also, the inhibition entry in assay [4] and in assay [7] was “Dose-dependent effect” in each case.
With `O=C(CCCCCCC(=O)Nc1cc2c(Nc3cccc(Cl)c3)ncnc2s1)NO`, the IC50 is 4490 nM in assay [1], 6.46 nM in assay [2], 3.24 nM in assay [3] and 8.58 nM in assay [6].
Regarding `O=C(CCCCCCC(=O)Nc1cc2c(Nc3ccc(O[C@H]4CCOC4)c(Cl)c3)ncnc2s1)NO`, the IC50 in assay [1] turned out to be 4200 nM; in assay [2], 3.58 nM; in assay [3], 2.97 nM; in assay [5], 2240 nM; in assay [6], 1.9 nM.
For `O=C(CCCCCCC(=O)Nc1cc2c(Nc3ccc(Cl)c(C(F)(F)F)c3)ncnc2s1)NO`, the IC50 in assay [2] turned out to be 23.5 nM; in assay [3] it was 21.7 nM; in assay [6], 11.5 nM.
Regarding `O=C(CCCCCCC(=O)Nc1cc2c(Nc3ccccc3)ncnc2s1)NO`, the IC50 is 3790 nM in assay [1]; 3.47 nM in assay [2]; 1.9 nM in assay [3]; 1820 nM in assay [5]; 12 nM in assay [6]. Besides, the inhibition result in assay [4] and in assay [7] was “Dose-dependent effect” throughout.
Regarding `Cc1ccc(Nc2ncnc3sc(NC(=O)CCCCCCC(=O)NO)cc23)cc1C`, the IC50 in assay [1] was 2390 nM; in assay [2], 3.56 nM; in assay [3], 1.14 nM; in assay [5], 1610 nM; in assay [6], 11.4 nM. Besides, the inhibition entry in assay [4] and in assay [7] was “Dose-dependent effect” in each case.
As for `O=C(CCCCCCC(=O)Nc1cc2c(Nc3ccc(N4CCCC4)cc3)ncnc2s1)NO`, the IC50 in assay [1] was determined as 5420 nM; in assay [2], 14.1 nM; in assay [3] it was 13.9 nM; in assay [5], 3740 nM; in assay [6], 7.19 nM.
The corresponding values for `CCN(CC)c1ccc(Nc2ncnc3sc(NC(=O)CCCCCCC(=O)NO)cc23)cc1` are 5950 nM, 39.7 nM, 32.9 nM, 4440 nM and 43.2 nM.
`O=C(CCCCC(=O)Nc1cc2c(Nc3ccc(Cl)c(C(F)(F)F)c3)ncnc2s1)NO`: the figures for the IC50 in assay [2] and in assay [3] were 607 nM and 218 nM, respectively.
For the compound `O=C(CCCCCCC(=O)Nc1cc2c(Nc3cccc(Cl)c3F)ncnc2s1)NO`, the IC50 in assay [1] was 8170 nM; in assay [2], 14.6 nM; in assay [3] it was 7.78 nM; in assay [6] it was 8.46 nM.
Take `O=C(CCCCCCC(=O)Nc1cc2c(Nc3ccc(F)c(Cl)c3)ncnc2s1)NO`: the IC50 came out at 17.9 nM in assay [2], 13.4 nM in assay [3] and 22 nM in assay [6].
The corresponding values for `O=C(CCCCCC(=O)Nc1cc2c(Nc3ccc(Cl)c(C(F)(F)F)c3)ncnc2s1)NO` are 48.3 nM, 40.8 nM and 30 nM.
The corresponding values for `O=C(CCCCCCC(=O)Nc1cc2c(Nc3ccc(I)cc3F)ncnc2s1)NO` are 13.5 nM, 6.24 nM and 6.55 nM.
Consider `Cc1ccc(Nc2ncnc3sc(NC(=O)CCCCCC(=O)NO)cc23)cc1`, for which the results for the IC50 in assay [2], in assay [3] and in assay [6] were 9.33 nM, 14 nM and 19.7 nM, respectively.
Take `O=C(CCCCC(=O)Nc1cc2c(Nc3ccc(F)c(Cl)c3)ncnc2s1)NO`: the concentration for half-maximal inhibition (IC50) amounted to 127 nM in assay [2], 131 nM in assay [3] and 569 nM in assay [6].
In the case of `O=C(CCCCCCC(=O)Nc1cc2c(Nc3ccc(Br)cc3F)ncnc2s1)NO`, the IC50 in assay [1] turned out to be 8120 nM; in assay [2] it was 11.9 nM; in assay [3], 13.5 nM; in assay [6], 8.87 nM.
In the case of `O=C(CCCCCCC(=O)Nc1cc2c(Nc3ccc(N4CCCC4)c(F)c3)ncnc2s1)NO`, the IC50 amounted to 4630 nM in assay [1]; 14.1 nM in assay [2]; 14.5 nM in assay [3]; 4090 nM in assay [5]; 9.28 nM in assay [6].
As for `O=C(CCCCCC(=O)Nc1cc2c(Nc3ccc(F)c(Cl)c3)ncnc2s1)NO`, the IC50 in assay [2] was determined as 37.7 nM; in assay [3], 35.9 nM; in assay [6], 24 nM.
With `O=C(CCCCCCC(=O)Nc1cc2c(Nc3ccc(F)cc3F)ncnc2s1)NO`, the IC50 in assay [1] is 7490 nM; in assay [2], 16.9 nM; in assay [3], 10.1 nM; in assay [6], 7.88 nM.

The values are drawn from ChEMBL document CHEMBL3351302, “Design, synthesis and biological evaluation of 4-anilinothieno[2,3-d]pyrimidine-based hydroxamic acid derivatives as novel histone deacetylase inhibitors” (Bioorg Med Chem, 2014).
